The target of this test is T1, PPM1A (protein phosphatase magnesium-dependent 1A; PP2Cα) (Homo sapiens, UniProt P35813).
T1 sequence (P35813 2-382): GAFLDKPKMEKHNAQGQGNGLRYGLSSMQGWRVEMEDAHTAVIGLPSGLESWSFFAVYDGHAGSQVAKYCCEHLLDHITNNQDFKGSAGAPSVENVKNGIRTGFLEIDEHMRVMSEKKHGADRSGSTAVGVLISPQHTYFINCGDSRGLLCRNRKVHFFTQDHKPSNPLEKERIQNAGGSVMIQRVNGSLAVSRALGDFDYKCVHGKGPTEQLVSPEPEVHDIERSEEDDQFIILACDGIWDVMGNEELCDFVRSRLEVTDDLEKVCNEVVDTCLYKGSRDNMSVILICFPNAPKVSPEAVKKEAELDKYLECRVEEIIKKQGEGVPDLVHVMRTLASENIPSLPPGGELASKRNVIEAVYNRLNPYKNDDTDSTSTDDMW
As to the kind of experiment: microscale thermophoresis. Type of test: binding.

A word on the Kd: it is the free concentration of one partner at which half of the binding sites on the other are occupied at equilibrium, for simple one-to-one binding. A higher Kd goes with weaker binding. With `CCCCCCCCCCCCCCCCOP(=O)([O-])OCC[N+](C)(C)C` [MF, Miltefosine], binding was put at a Kd of 2.69 µM.

These data come from paper PMC9650016 (Brain, Behavior, & Immunity - Health, 2022).
